Reference: US20100298141A1, “SUBSTITUTED PYRIDINE N-OXIDE HERBICIDES” (E. I. DU PONT DE NEMOURS AND COMPANY, priority 2007, published 2010)

Legend:
velvetleaf [1] = assay: Test C pre-/postemergence test; type: in vivo, Abutilon theophrasti
In short: (§1)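 Test chemicals were formulated with surfactant in a non-phytotoxic solvent and sprayed both on freshly planted seeds (preemergence) and on 1- to 4-leaf plants of 2–18 cm (postemergence). Flooded-paddy pots received compound directly into 3 cm of standing water, maintained for the test.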

catchweed bedstraw = assay: Test C pre-/postemergence test; type: in vivo, Galium aparine
In short: as §1

downy brome = assay: Test C pre-/postemergence test; type: in vivo, Bromus tectorum
In short: as §1

johnsongrass = assay: Test C pre-/postemergence test; type: in vivo, Sorghum halepense
In short: as §1

corn = assay: Test C pre-/postemergence test; type: in vivo, Zea mays
In short: as §1

eastern black nightshade = assay: Test C pre-/postemergence test; type: in vivo, Solanum ptycanthum
In short: as §1

woolly cupgrass = assay: Test C pre-/postemergence test; type: in vivo, Eriochloa villosa
In short: as §1

rice = assay: Test C flooded paddy test; type: in vivo, Oryza sativa; details: Flood
In short: (§2)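 Compound was added to standing water 3 cm above soil, flood maintained, and plants held in a greenhouse before visual scoring against controls at 13 to 15 days.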

wheat [2] = assay: Test C pre-/postemergence test; type: in vivo, Triticum aestivum
In short: as §1

wheat [3] = assay: Test A pre-/postemergence greenhouse test; type: in vivo, Triticum aestivum; details: for Plant response rating, Wheat: 0 to 100 scale where 0 is no effect and 100 is complete control; for Wheat plant response rating: 0 to 100 scale
In short: (§3)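 Seeds sown in a loam soil–sand blend got a preemergence directed soil spray of compound in a non-phytotoxic solvent mixture containing surfactant. Postemergence sprays of the same formulation went at the same time onto plants 2–10 cm tall at the one- to two-leaf stage. Injury was scored visually against untreated controls after about ten days in the greenhouse.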

yellow nutsedge = assay: Test C pre-/postemergence test; type: in vivo, Cyperus esculentus
In short: as §1

velvetleaf [4] = assay: Test A pre-/postemergence greenhouse test; type: in vivo, Abutilon theophrasti; details: for Plant response rating, Velvetleaf: 0 to 100 scale where 0 is no effect and 100 is complete control; for Velvetleaf plant response rating: 0 to 100 scale
In short: as §3

wild oat = assay: Test C pre-/postemergence test; type: in vivo, Avena fatua
In short: as §1

duck salad = assay: Test C flooded paddy test; type: in vivo, Heteranthera limosa; details: Flood
In short: as §2

giant foxtail = assay: Test C pre-/postemergence test; type: in vivo, Setaria faberii
In short: as §1

morningglory = assay: Test C pre-/postemergence test; type: in vivo, Ipomoea coccinea
In short: as §1

redroot pigweed = assay: Test A pre-/postemergence greenhouse test; type: in vivo, Amaranthus retroflexus; details: for Plant response rating, Pigweed: 0 to 100 scale where 0 is no effect and 100 is complete control; for Pigweed plant response rating: 0 to 100 scale
In short: as §3

[5] = 62 g ai/ha, Preemergence, scale 0 to 100
[6] = 125 g ai/ha, preemergence, scale 0 (no effect) to 100 (complete control)
[7] = Postemergence, 125 g ai/ha, scale 0 to 100, 0 no effect, 100 complete control
[8] = Postemergence, 250 g ai/ha, scale 0 to 100, 0 no effect, 100 complete control
[9] = Preemergence, 31 g ai/ha, scale 0 to 100 (0 no effect, 100 complete control)
[10] = preemergence, 250 g ai/ha, scale 0 (no effect) to 100 (complete control)
[11] = Postemergence, 62 g ai/ha, scale 0 to 100, 0 no effect, 100 complete control
[12] = 62 g ai/ha, scale 0 to 100 (0 no effect, 100 complete control)
[13] = 250 g ai/ha, scale 0 to 100, 0 no effect, 100 complete control, 13 to 15 days
[14] = Postemergence, 500 g ai/ha, 0 is no effect, 100 is complete control
[15] = Preemergence, 125 g ai/ha, 0 no effect, 100 complete control

Cn1nc(C(F)(F)F)c(C[S+]([O-])c2ccc(Cl)c[n+]2[O-])c1OCC(F)(F)F (racemic) [Compound 62]
85: Bromegrass, Downy plant response rating (downy brome; [10]) | Oat, Wild plant response rating (wild oat; [5]) | Plant response rating, Ducksalad (duck salad; [13])
98: Corn plant response rating (corn; [5])
100: Velvetleaf plant response rating (velvetleaf [1]; [6]) | Velvetleaf plant response rating (velvetleaf [1]; [10]) | Galium plant response rating (catchweed bedstraw; [5]) | Galium plant response rating (catchweed bedstraw; [6]) | Plant response rating, Galium (catchweed bedstraw; [9]) | Galium plant response rating (catchweed bedstraw; [10]) | Johnsongrass plant response rating (johnsongrass; [5]) | Johnsongrass plant response rating (johnsongrass; [6]) | Johnsongrass plant response rating (johnsongrass; [10]) | Corn plant response rating (corn; [6]) | Corn plant response rating (corn; [10]) | Nightshade plant response rating (eastern black nightshade; [5]) | Nightshade plant response rating (eastern black nightshade; [6]) | Plant response rating, Nightshade (eastern black nightshade; [9]) | Nightshade plant response rating (eastern black nightshade; [10]) | Cupgrass, Woolly plant response rating (woolly cupgrass; [6]) | Cupgrass, Woolly plant response rating (woolly cupgrass; [10]) | Plant response rating, Wheat (wheat [3]; Preemergence, 500 g ai/ha) | Nutsedge, Yellow plant response rating (yellow nutsedge; [10]) | Velvetleaf plant response rating (velvetleaf [4]; [15]) | Plant response rating, Velvetleaf (velvetleaf [4]; Preemergence, 500 g ai/ha) | Oat, Wild plant response rating (wild oat; [10]) | Foxtail, Giant plant response rating (giant foxtail; [5]) | Foxtail, Giant plant response rating (giant foxtail; [6]) | Foxtail, Giant plant response rating (giant foxtail; [10]) | Morningglory plant response rating (morningglory; [6]) | Morningglory plant response rating (morningglory; [10]) | Pigweed plant response rating (redroot pigweed; [15]) | Plant response rating, Pigweed (redroot pigweed; Preemergence, 500 g ai/ha)
55: Wheat plant response rating (wheat [2]; [5]) | Plant response rating, Wheat (wheat [2]; [7])
45: Plant response rating, Bromegrass, Downy (downy brome; [7])
95: Wheat plant response rating (wheat [2]; [10]) | Oat, Wild plant response rating (wild oat; [6])
90: Velvetleaf plant response rating (velvetleaf [1]; [5]) | Plant response rating, Rice (rice; [13]) | Velvetleaf plant response rating (velvetleaf [4]; [14]) | Morningglory plant response rating (morningglory; [5])
0: Plant response rating (0 to 100), Velvetleaf (velvetleaf [1]; Postemergence, 31 g ai/ha) | Plant response rating (0 to 100), Velvetleaf (velvetleaf [1]; Postemergence, 62 g ai/ha) | Plant response rating (0 to 100), Bromegrass, Downy (downy brome; Postemergence, 31 g ai/ha) | Plant response rating, Bromegrass, Downy (downy brome; [11]) | Plant response rating (0 to 100), Johnsongrass (johnsongrass; Postemergence, 31 g ai/ha) | Plant response rating, Johnsongrass (johnsongrass; [11]) | Plant response rating, Johnsongrass (johnsongrass; [7]) | Plant response rating, Johnsongrass (johnsongrass; [8]) | Plant response rating (0 to 100), Corn (corn; Postemergence, 31 g ai/ha) | Plant response rating, Corn (corn; [11]) | Plant response rating, Corn (corn; [7]) | Plant response rating (0 to 100), Cupgrass, Woolly (woolly cupgrass; Postemergence, 31 g ai/ha) | Plant response rating, Cupgrass, Woolly (woolly cupgrass; [11]) | Plant response rating, Cupgrass, Woolly (woolly cupgrass; [7]) | Plant response rating, Cupgrass, Woolly (woolly cupgrass; [9]) | Plant response rating (0 to 100), Wheat (wheat [2]; Postemergence, 31 g ai/ha) | Plant response rating (0 to 100), Nutsedge, Yellow (yellow nutsedge; Postemergence, 31 g ai/ha) | Plant response rating, Nutsedge, Yellow (yellow nutsedge; [11]) | Plant response rating, Nutsedge, Yellow (yellow nutsedge; [7]) | Plant response rating, Nutsedge, Yellow (yellow nutsedge; [8]) | Plant response rating, Nutsedge, Yellow (yellow nutsedge; [9]) | Plant response rating (0 to 100), Oat, Wild (wild oat; Postemergence, 31 g ai/ha) | Plant response rating, Oat, Wild (wild oat; [11]) | Plant response rating (0 to 100), Foxtail, Giant (giant foxtail; Postemergence, 31 g ai/ha) | Plant response rating, Foxtail, Giant (giant foxtail; [11]) | Plant response rating (0 to 100), Morningglory (morningglory; Postemergence, 31 g ai/ha) | Plant response rating, Morningglory (morningglory; [11]) | Plant response rating, Morningglory (morningglory; [7])
5: Plant response rating, Velvetleaf (velvetleaf [1]; [7])
10: Plant response rating, Corn (corn; [8]) | Plant response rating (0 to 100), Wheat (wheat [2]; Postemergence, 62 g ai/ha)
40: Plant response rating, Velvetleaf (velvetleaf [1]; [8]) | Plant response rating, Velvetleaf (velvetleaf [1]; [9]) | Plant response rating, Wheat (wheat [2]; [9]) | Nutsedge, Yellow plant response rating (yellow nutsedge; [5]) | Plant response rating, Foxtail, Giant (giant foxtail; [7])
80: Plant response rating, Corn (corn; [9]) | Wheat plant response rating (wheat [2]; [6]) | Pigweed plant response rating (redroot pigweed; [14])
30: Plant response rating, Oat, Wild (wild oat; [7]) | Plant response rating, Morningglory (morningglory; [8])
70: Bromegrass, Downy plant response rating (downy brome; [6]) | Plant response rating, Johnsongrass (johnsongrass; [9]) | Cupgrass, Woolly plant response rating (woolly cupgrass; [5]) | Wheat plant response rating (wheat [3]; [15]) | Nutsedge, Yellow plant response rating (yellow nutsedge; [6]) | Plant response rating, Oat, Wild (wild oat; [9]) | Plant response rating, Ducksalad (duck salad; [12]) | Plant response rating, Foxtail, Giant (giant foxtail; [8]) | Plant response rating, Foxtail, Giant (giant foxtail; [9])
50: Bromegrass, Downy plant response rating (downy brome; [5]) | Plant response rating, Bromegrass, Downy (downy brome; [9]) | Plant response rating, Cupgrass, Woolly (woolly cupgrass; [8]) | Plant response rating, Oat, Wild (wild oat; [8]) | Plant response rating, Morningglory (morningglory; [9])
60: Plant response rating, Bromegrass, Downy (downy brome; [8]) | Plant response rating, Rice (rice; [12]) | Plant response rating, Wheat (wheat [2]; [8]) | Plant response rating, Wheat (wheat [3]; Postemergence, 125 g ai/ha) | Wheat plant response rating (wheat [3]; [14]) | Plant response rating, Velvetleaf (velvetleaf [4]; Postemergence, 125 g ai/ha) | Plant response rating, Pigweed (redroot pigweed; Postemergence, 125 g ai/ha)
